Data taken from patent publication US20220187282A1, “CARDIOMYOCYTE PROLIFERATION” (The Council of the Queensland Institute of Medical Research, priority 2019, published 2022).

Key:
Type in all cases: cell-based, human
[1] = test system: hPSC-CMs; assay: 2D high-content primary screen, DNA synthesis (EdU) in hPSC-CM; conditions: for 2D Screen Max Effect (%): maximum over 0.1, 1, 10 uM
From the text: The compound library included 5,000 biologically annotated pre-clinical, clinical, and tool compounds. They were selected based on a combination of criteria including balancing the number of external/internal compounds, diversity of annotated targets to cover greater than 1500 biological targets, and known targets associated with cell proliferation. […] Both negative vehicle (DMSO) and positive (CHIR99021) controls were included on each plate in each experiment (FIG. 2B,C).

[2] = test system: mature hCOs; assay: mature hCO, force of contraction; conditions: 2 days, compound 3 at 3 μM, 63 at 0.3 μM, 65 at 1 μM
Description: hCOs were cultured in CTRL medium for formation for 5 days and then either kept in CTRL medium culture or changed to maturation medium (Mills et al., 2017a) comprising DMEM without glucose, glutamine and phenol red (ThermoFisher Scientific) supplemented with 4% […](without insulin) (ThermoFisher Scientific), 1% GlutaMAX (ThermoFisher Scientific), 200 μM L-ascorbic acid 2-phosphate sesquimagnesium salt hydrate and 1% Penicillin/Streptomycin (ThermoFisher Scientific), 1 mmol/L glucose and 100 μmon palmitic acid (conjugated to bovine serum albumin within B27 by incubating for 2h at 37° C., Sigma) with changes every 2-3 days.
The pole deflection was used to approximate the force of contraction as per (Mills et al., 2017a). A Leica DMi8 inverted high content Imager was used to capture a 10 s time-lapse of each hCO contracting in real time at 37° C. […]
(§1) Hits were next validated in mature hCOs using a targeted concentration range based on their active concentrations in the initial immature hCO screen (FIG. 3A). Proliferation markers were quantified using high magnification confocal imaging as we found flow cytometry to be inaccurate in hCO (data not shown). […]

[3] = test system: mature hCOs; assay: mature hCO, mitosis (pH3) of cardiomyocytes; conditions: 2 days, optimal concentrations
Description: Whole-Mount Immunostaining hCOs were fixed for 60 min with 1% paraformaldehyde (Sigma) at room temperature and washed 3× with PBS, after which they were incubated with primary antibodies (see Star Methods Table) in Blocking Buffer, 5% FBS and 0.2% Triton-X-100 (Sigma) in PBS overnight at 4° C. Cells were then washed in Blocking Buffer 2× for 2 h and subsequently incubated with secondary antibodies (see Star Methods Table) and Hoechst33342 (1:1000) overnight at 4° C. They were washed in Blocking Buffer 2× for 2 h and imaged in situ or mounted on microscope slides using Fluoromount-G (Southern Biotech).
For more detailed images an Olympus IX81 confocal microscope was used for mounted hCO imaging. For cell cycle analysis experiments 3 random fields of view were imaged and manually quantified for proliferation. These were added together to calculate the percentage of hPSC-CM proliferation in each hCO.
as §1, with “shown). Compounds 3, 63 and 65 had no impact on contractile force (FIG. 3B) at concentrations of 3 μM, 0.3 μM and 1 μM, respectively.” for “shown).”

[4] = test system: mature hCO; assay: RNA-sequencing of mature hCO treated with compounds; conditions: 2 days; for genes regulated (RNA-seq): 3 μM compound 3, 0.3 μM compound 63, 1 μM compound 65
Description: For each experiment 15-20 hCOs were pooled, snap frozen and RNA extracted using Trizol (ThermoFisher Scientific), treated with DNAse (Qiagen) and purified using RNeasy Minielute Cleanup Kit (Qiagen). The quality of the RNA was assessed by Fragment Analyzer (Advances Analytical Technologies) and samples with RNA quality number >8.9 were used for library preparation. RNA samples were processed with Illumina TruSeq Stranded mRNA Library prep kit selecting for poly(A) tailed RNA following the manufacturer's recommendations. Libraries were quantified with Qubit HS (ThermoFisher) and Fragment Analyzer (Advances Analytical Technologies) adjusted to the appropriate concentration for sequencing. Indexed libraries were pooled and sequenced at a final concentration of 1.8 pmol/L on an Illumina NextSeq 500 high-output run using paired-end chemistry with 75 bp read length.
The sequencing data was demultiplexed using Illumina bc12fastq2-v2.17. The quality of the reads was assessed thanks to FastQC (https://www.bioinformatics.babraham.ac.uk/projects/fastqc/). The reads were then processed and mapped to the human genome hg38 using the Bcbio-nextgen framework version 1.0.3 (https://github.com/chapmanb/bcbio-nextgen). The aligner used was HISAT2 2.0.5. For sample quality assessment, raw counts were normalised with DESeq2 regularized logarithm function. A principal component analysis (PCA) was performed using R v 3.3.1(Team, 2015) and led to the detection of a batch effect among samples which was corrected using the removeBatchEffect function from Limma v3.30.13. The identification of the differentially expressed genes between treated and non-treated samples was performed using DESeq2 v1.14.1 (Love et al., 2014) in R v 3.3.1 (Team, 2015) using the design ˜Batch+Compound to account for the batch effect directly. A FDR of 0.1 was defined to call for differentially expressed genes. The mechanistic networks in were generated using IPA upstream analysis (QIAGEN Inc., https://www.qiagenbioinformatics.com/products/ingenuity-pathway-analysis). Gene Ontology (GO) annotations enrichment analyses were performed with GOSeq v1.28.0 (Young et al., 2010), were generated in R using ggplot2 (http://ggplot2.tidyverse.org/index.html) and package GOSemSim v2.2.0 (Yu et al., 2010) for term similarities.
In order to determine the biological processes driving the pro-proliferative effects of our hit compounds, we performed RNA-sequencing (RNA-seq) and single organoid quantitative proteomics (FIG. 4A). These analyses were performed on hCOs treated with compounds 3, 63 and 65 at concentrations of 3 μM, 0.3 μM and 1 μM, respectively. RNA-seq for hCO treated with compounds 3 and 65 clustered distinctly in principal component analysis (FIG. 4B) and regulated a total of 239 and 207 genes (FIG. 9A), respectively.

Row | Structure (SMILES) | 2D Screen (AZ) 0.1 uM Prolif Activation EdU (%) [1] [%] | 2D Screen (AZ) 1 uM Prolif Activation EdU (%) [1] [%] | 2D Screen (AZ) 10 uM Prolif Activation EdU (%) [1] [%] | 2D Screen Max Effect (%) [1] [%] | contractile force [2] | cell cycle progression and mitosis of cardiomyocytes (pH3+) [3] | network significantly regulated (network analysis of RNA-seq) [4] | mevalonate pathway enzymes SQLE, HMGCS1 and CYP51A1 ([4]; 1 μM) | networks regulated based on RNA-seq data (gene ontologies) ([4]; 1 μM) | transcription of CDKN2B (p15) ([4]; 1 μM) | genes regulated (RNA-seq) [4] [genes] | transcription of cell cycle controllers PLK1, CCNB2, CCND1, CCNA2 and FOXM1 ([4]; 3 μM)
1 | Cc1cc(Oc2ccnc(Nc3ccc(S(N)(=O)=O)cc3)c2)c(-c2ccccn2)nc1C [compound 65] | 48 | 76 | 171 | 171 | no impact | promoted cell cycle progression and mitosis | TGFβ receptor (TGFβR) and bone morphogenic protein receptor (BMPR) networks | activated | an extracellular matrix network and a cholesterol biosynthesis network | inhibited | 207 | –
2 | Cc1ccc(NC(=O)c2ccnc(N3CCOCC3)c2)cc1Nc1ccnc(N2CC(C)OC(C)C2)n1 (centres unmarked) [compound 3] | −6 | 35 | 183 | 183 | no impact | promoted cell cycle progression and mitosis | MAPK14 (p38α) network | – | – | – | 239 | upregulated
